Data from the supplement of paper PMC6723410.

What was measured:
GUMC-403 [1] = assay: viability at highest tested concentration (max response) relative to DMSO (% of DMSO control); higher = less cytotoxic; conditions: library / dose series: MIPE library, 11-point 1:3 dilution; top concentration 46.1 µM; 48 h
Outline: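 Viability at the highest tested concentration is given relative to vehicle control. For this, conditionally reprogrammed patient-derived GUMC-403 papilloma cells at 700/well in 1536-well plates were exposed to 23 nL of pinned compound for 48 h. Luminescence from CellTiter-Glo was read on a ViewLux and scaled between empty wells (0%) and vehicle wells (100%).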

GUMC-403 [2] = assay: AC50 for reduction of cell viability; higher = less potent; conditions: library / dose series: MIPE library, 11-point 1:3 dilution; 48 h

Row | SMILES | viability (GUMC-403 [1]) | AC50 for reduction of cell viability (GUMC-403 [2]) [µM]
1 | CC[C@@H]1C(=O)N(C)c2cnc(Nc3ccc(C(=O)NC4CCC(N5CCN(CC6CC6)CC5)CC4)cc3OC)nc2N1C(C)C (stereo partly drawn) | 6.26 | 20.9
2 | CC(C)[C@H](C(=O)Nc1ccc(C(=O)NO)cc1)c1ccccc1 | 11 | 18.7
3 | CC1(C)OC/2=C(\[C@H](NCC3=CC=CC=C3)[C@@H]1O)C(=O)C4=CC=CC=C4C2=O | 5.84 | 7.43
4 | Cc1n[nH]c2ccc(-c3cncc(OC[C@@H](N)Cc4ccccc4)c3)cc12 | 5.22 | 2.64
5 | O=C1c2c(O)ccc(O)c2C(=O)c2c(NCCNCCO)ccc(NCCNCCO)c21 | 12.4 | 7.43
6 | CCN1CCN(Cc2ccc(-c3cc4c(N[C@H](C)c5ccccc5)ncnc4[nH]3)cc2)CC1 | 69 | 0.372
7 | NC1(C(=O)N[C@@H](CCO)c2ccc(Cl)cc2)CCN(c2ncnc3[nH]ccc23)CC1 | 33.6 | 16.6
8 | C=CC(=O)Nc1cccc(Oc2nc(Nc3ccc(N4CCN(C)CC4)cc3OC)ncc2Cl)c1 | 65.2 | 0.59
9 | CNC(=O)Nc1ccc(-c2nc(N3CC4CCC(C3)O4)c3cnn(C4CCC5(CC4)OCCO5)c3n2)cc1 | 62.9 | 0.00332
